The values that follow are results of earlier work, collected in patent US6790445B1, “Preservatives for vaccines” (Merck & Co., Inc., priority 1997, dated 2004).

For data set [1] the following is noted: at 4° C.
The test system of a further data set is population. Particulars: in vivo.
The conditions of data set [2]: in vivo.
Another data set has as its system mice. The settings on record: intraperitoneally.

In general, pKa refers to the negative logarithm of the acid dissociation constant. `N[C@@H](Cc1c[nH]cn1)C(=O)O` [histidine, L-histidine]: the pKa in data set [1] is 7.
As for `C[CH2][Hg][S]c1ccccc1C(=O)[O-].[Na+]` [Thimerosal], the “allergic reaction, share of the population” value with population is reported as “about sixteen”.
Consider `OCc1ccccc1` [Benzyl Alcohol, benzyl alcohol], for which the probable lethal dose in data set [2] was 500 to 5000 mg/kg.
As to `OCCOc1ccccc1` [2-Phenoxyethanol, 2-phenoxyethanol], in the data set with rabbits, the “acute dermal LD50” value is 2.0 mL/kg. In the data set on rats, the “acute oral LD50” value is 1.26 to 2.33 mL/kg.
For orientation: LD50 means the dose expected to kill half of the subjects tested. Turning to `COC(=O)c1ccc(O)cc1` [Methyl Paraben, methyl paraben], the LD50 in the data set with mice was 1000 mg/kg.
